In ChEMBL document CHEMBL3886802, “Serine/threonine kinase inhibitors” (2016):

Molecular target: Mitogen-activated protein kinase 1 (Homo sapiens, UniProt P28482)
Assay: Enzymatic Assay: Compounds were tested in an enzymatic assay using human ERK-2 (Mitogen Activated Kinase 1), recombinantly expressed as an n-terminal 6-His fusion protein in E. coli and corresponding to a 8-360. The substrate used was the fluorescent Omnia peptide S/T17 (Invitrogen of Carlsbad, Calif.; Cat. KNZ1171C). Test compounds were diluted in DMSO in 3-fold serial dilutions at 100× final concentrations. […] The assay was run at ambient temperature in a white 384-well polypropylene plate (Nunc, Inc of Naperville, Ill.; Cat. 267462) collecting data every 50 seconds for approximately 30 minutes on an Envision plate reader (PerkinElmer, Inc. of Waltham, Mass.); Excitation 340 nm/Emission 495 nm.

Sequence of Mitogen-activated protein kinase 1 (P28482 whole entry, the tested form may be a part): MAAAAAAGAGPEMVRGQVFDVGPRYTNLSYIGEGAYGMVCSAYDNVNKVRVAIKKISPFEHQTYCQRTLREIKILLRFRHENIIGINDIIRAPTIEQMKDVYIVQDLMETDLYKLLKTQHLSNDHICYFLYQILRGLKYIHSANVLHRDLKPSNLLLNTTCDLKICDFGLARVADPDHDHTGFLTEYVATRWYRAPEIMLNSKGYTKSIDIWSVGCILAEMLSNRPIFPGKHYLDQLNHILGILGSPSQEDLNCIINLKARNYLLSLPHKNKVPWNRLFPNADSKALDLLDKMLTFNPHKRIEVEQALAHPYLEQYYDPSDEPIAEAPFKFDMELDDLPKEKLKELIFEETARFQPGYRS

Cn1nccc1Nc1cc2nc(C(=O)N[C@H](CO)c3ccc(Cl)c(F)c3)ccc2cn1 was tested, and the IC50 was 0.748 nM.
